Data reported in patent US4362743A, “Antibacterial monic acid esters” (Beecham Group Limited, priority 1980, dated 1982).
Converted amounts (≈) assume the structure as drawn. Where two headings read alike, the source gives them in different places.

Tests used:
[1] = tested on: M. suipneumoniae NB12; experiment: Anti-mycoplasmal activity in vitro MIC; type: cell-based; settings: Mesomycoplasma hyopneumoniae, NB12, 144 h
[2] = tested on: M. suipneumoniae HK (2); experiment: Anti-mycoplasmal activity in vitro MIC; type: cell-based; settings: Mesomycoplasma hyopneumoniae, 144 h
[3] = tested on: M. suipneumoniae J2206/183b; experiment: Anti-mycoplasmal activity in vitro MIC; type: cell-based; settings: Mesomycoplasma hyopneumoniae, J2206/183B, 144 h
[4] = tested on: M. suipneumoniae MS16; experiment: Anti-mycoplasmal activity in vitro MIC; type: cell-based; settings: Mesomycoplasma hyopneumoniae
[5] = tested on: M. suipneumoniae PW/C/210; experiment: Anti-mycoplasmal activity in vitro MIC; type: cell-based; settings: Mesomycoplasma hyopneumoniae, 144 h
[6] = tested on: M. suipneumoniae LABER; experiment: Anti-mycoplasmal activity in vitro MIC; type: cell-based; settings: Mesomycoplasma hyopneumoniae, 144 h
[7] = tested on: M. suipneumoniae TAM 6N; experiment: Anti-mycoplasmal activity in vitro MIC; type: cell-based; settings: Mesomycoplasma hyopneumoniae, TAM6N, 144 h
[8] = tested on: M. suipneumoniae ATCC 25095; experiment: Anti-mycoplasmal activity in vitro MIC; type: cell-based; settings: Mesomycoplasma hyopneumoniae, ATCC25095, 144 h
[9] = tested on: M. hyorhinis ATCC 25021; experiment: Anti-mycoplasmal activity in vitro MIC; type: cell-based; settings: Mesomycoplasma hyorhinis, ATCC25021, 144 h
[10] = tested on: M. hyosynoviae ATCC 25591; experiment: Anti-mycoplasmal activity in vitro MIC; type: cell-based; settings: 144 h
[11] = tested on: M. bovigenitalium ATCC 14173; experiment: Anti-mycoplasmal activity in vitro MIC; type: cell-based; settings: 144 h
[12] = tested on: M. dispar NCTC 10125; experiment: Anti-mycoplasmal activity in vitro MIC; type: cell-based; settings: 144 h
[13] = tested on: M. gallisepticum S6; experiment: Anti-mycoplasmal activity in vitro MIC; type: cell-based; settings: Mycoplasmoides gallisepticum, 144 h; M. gallisepticum S6; Friis broth, 0.9% agarose, 6 days 37° C.; read-out: M.I.C.
[14] = tested on: E. coli El; experiment: Veterinary bacteria MIC; type: cell-based; settings: Escherichia coli
Procedure: (§1) The values were determined using a two fold serial dilutions in Diagnostic Sensitivity Test Agar with an inoculum of 10^4 organisms and incubation for 18 hours at 37° C.

[15] = tested on: E. coli NCTC 10418; experiment: Veterinary bacteria MIC; type: cell-based; settings: Escherichia coli
Procedure: as §1

[16] = tested on: Erysipelothrix rhusiopathiae NCTC 8163; experiment: Veterinary bacteria MIC; type: cell-based
Procedure: as §1

[17] = tested on: Past. haemolytica PA5; experiment: Veterinary bacteria MIC; type: cell-based; settings: Mannheimia haemolytica
Procedure: as §1

[18] = tested on: Past. multocida PA1; experiment: Veterinary bacteria MIC; type: cell-based; settings: Pasteurella multocida, Diagnostic Sensitivity Test Agar, 18 hours 37° C.
Procedure: as §1

[19] = tested on: Past. multocida PA2; experiment: Veterinary bacteria MIC; type: cell-based; settings: Pasteurella multocida; Past. multocida PA2; Diagnostic Sensitivity Test Agar, 18 hours 37° C.; read-out: M.I.C.
Procedure: as §1

[20] = tested on: S. dublin S7; experiment: Veterinary bacteria MIC; type: cell-based; settings: Salmonella enterica
Procedure: as §1

[21] = tested on: S. typhimurium S18; experiment: Veterinary bacteria MIC; type: cell-based; settings: Salmonella enterica
Procedure: as §1

[22] = tested on: Staph. aureus 152 (pen. sens); experiment: Veterinary bacteria MIC; type: cell-based; settings: Staphylococcus aureus, Diagnostic Sensitivity Test Agar, 18 hours 37° C.
Procedure: as §1

[23] = tested on: Staph. aureus B4 (pen. resistant); experiment: Veterinary bacteria MIC; type: cell-based; settings: Staphylococcus aureus, Diagnostic Sensitivity Test Agar, 18 hours 37° C.
Procedure: as §1

[24] = tested on: Staph. aureus Oxford; experiment: Veterinary bacteria MIC; type: cell-based; settings: Staphylococcus aureus, Diagnostic Sensitivity Test Agar, 18 hours 37° C.
Procedure: as §1

[25] = tested on: Strep. agalactiae SPA1; experiment: Veterinary bacteria MIC; type: cell-based; settings: Streptococcus agalactiae, Diagnostic Sensitivity Test Agar, 18 hours 37° C.
Procedure: as §1

[26] = tested on: Strep. dysgalactiae SPD1; experiment: Veterinary bacteria MIC; type: cell-based; settings: Streptococcus dysgalactiae, Diagnostic Sensitivity Test Agar, 18 hours 37° C.
Procedure: as §1

[27] = tested on: Strep. suis (Group D) SPS11; experiment: Veterinary bacteria MIC; type: cell-based; settings: Streptococcus suis; Strep. suis (Group D) SPS11; Diagnostic Sensitivity Test Agar, 18 hours 37° C.; read-out: M.I.C.
Procedure: as §1

[28] = tested on: Strep. uberis SPU1; experiment: Veterinary bacteria MIC; type: cell-based; settings: Streptococcus uberis, Diagnostic Sensitivity Test Agar, 18 hours 37° C.
Procedure: as §1

[29] = Serum binding by ultrafiltration; type: in vitro ADME; settings: pig, porcine serum, 8 mcg/ml, read-out: % bound to pig serum (converted)
Procedure: Serum binding was assessed by ultrafiltration of porcine serum containing compounds at 8 mcg/ml, and through an Amicon CF50A ultrafiltration cone. Separation of ultrafiltrate was achieved by centrifugation. Unbound concentrations of compound were measured in the ultrafiltrate by microbiological assay (B. subtilis ATCC 6633) against standards prepared in saline.

[30] = tested on: Sarcina lutea 8340; experiment: Human bacteria MIC; type: cell-based; settings: Micrococcus luteus, 8340, 18 h
Procedure: The values were determined by serial dilutions in nutrient agar with 5% chocolated horse blood after incubations for 18 hours at 37° C.

| SMILES | MIC [1] | MIC [2] | MIC [3] | MIC [7] | MIC [9] | MIC [10] | MIC [11] | MIC [12] | MIC [13] | MIC [18] | MIC [19] | MIC [22] | MIC [23] | MIC [24] | MIC [25] | MIC [26] | MIC [27] | MIC [28] | other results |
| --- | --- | --- | --- | --- | --- | --- | --- | --- | --- | --- | --- | --- | --- | --- | --- | --- | --- | --- | --- |
| C/C(=C\C(=O)OCCCC(=NNC(N)=O)c1ccccc1)C[C@@H]1OC[C@H](C[C@@H]2O[C@H]2[C@@H](C)[C@H](C)O)[C@@H](O)[C@H]1O [Example 2, 4-Phenyl-4-semicarbazonobutyl monate A] | 0.25 mg/L (≈ 0.456 µM) | 0.5 mg/L (≈ 0.913 µM) | 0.5 mg/L (≈ 0.913 µM) | 0.5 mg/L (≈ 0.913 µM) | 0.25 mg/L (≈ 0.456 µM) | 0.5 mg/L (≈ 0.913 µM) | 0.1 mg/L (≈ 0.183 µM) | 0.1 mg/L (≈ 0.183 µM) | 10 mg/L (≈ 18.3 µM) | 20 mg/L (≈ 36.5 µM) | 5 mg/L (≈ 9.13 µM) | 5 mg/L (≈ 9.13 µM) | 10 mg/L (≈ 18.3 µM) | 5 mg/L (≈ 9.13 µM) | 2.5 mg/L (≈ 4.56 µM) | 0.625 mg/L (≈ 1.14 µM) | 10 mg/L (≈ 18.3 µM) | 0.625 mg/L (≈ 1.14 µM) | MIC ([4]; MS16, 144 h): 0.25 mg/L (≈ 0.456 µM); MIC [5]: 0.25 mg/L (≈ 0.456 µM); MIC [6]: 0.25 mg/L (≈ 0.456 µM); MIC [8]: 0.25 mg/L (≈ 0.456 µM); MIC ([14]; E. coli El, Diagnostic Sensitivity Test Agar, 18 hours 37° C., read-out: M.I.C.): > 80 mg/L; MIC ([15]; NCTC10418, E. coli NCTC 10418, Diagnostic Sensitivity Test Agar, 18 hours 37° C., read-out: M.I.C.): > 80 mg/L; MIC ([16]; NCTC8163, Erysipelothrix rhusiopathiae NCTC 8163, Diagnostic Sensitivity Test Agar, 18 hours 37° C., read-out: M.I.C.): 10 mg/L (≈ 18.3 µM); MIC ([17]; Past. haemolytica PA5, Diagnostic Sensitivity Test Agar, 18 hours 37° C., read-out: M.I.C.): 80 mg/L (≈ 146 µM); MIC ([20]; S. dublin S7, Diagnostic Sensitivity Test Agar, 18 hours 37° C., read-out: M.I.C.): > 80 mg/L; MIC ([21]; S. typhimurium S18, Diagnostic Sensitivity Test Agar, 18 hours 37° C., read-out: M.I.C.): > 80 mg/L; fraction unbound [29]: < 0.159 |
| C/C(=C\C(=O)OCc1ccc(C=NO)o1)C[C@@H]1OC[C@H](C[C@@H]2O[C@H]2[C@@H](C)[C@H](C)O)[C@@H](O)[C@H]1O [Example 7, 5-Hydroxyiminomethylfurfuryl monate A] | 1 mg/L (≈ 2.14 µM) | 1 mg/L (≈ 2.14 µM) | 1 mg/L (≈ 2.14 µM) | 1 mg/L (≈ 2.14 µM) | 0.5 mg/L (≈ 1.07 µM) | 0.25 mg/L (≈ 0.535 µM) | 0.025 mg/L (≈ 0.0535 µM) | 0.1 mg/L (≈ 0.214 µM) | 5 mg/L (≈ 10.7 µM) | 0.625 mg/L (≈ 1.34 µM) | 0.625 mg/L (≈ 1.34 µM) | 1.25 mg/L (≈ 2.67 µM) | 1.25 mg/L (≈ 2.67 µM) | 1.25 mg/L (≈ 2.67 µM) | 1.25 mg/L (≈ 2.67 µM) | 0.625 mg/L (≈ 1.34 µM) | 20 mg/L (≈ 42.8 µM) | 0.625 mg/L (≈ 1.34 µM) | MIC ([4]; 144 h, M. suipneumoniae MS16, Friis broth, 0.9% agarose, 6 days 37° C., read-out: M.I.C.): 0.5 mg/L (≈ 1.07 µM); MIC ([5]; M. suipneumoniae PW/C/210, Friis broth, 0.9% agarose, 6 days 37° C., read-out: M.I.C.): 0.5 mg/L (≈ 1.07 µM); MIC ([6]; M. suipneumoniae LABER, Friis broth, 0.9% agarose, 6 days 37° C., read-out: M.I.C.): 0.5 mg/L (≈ 1.07 µM); MIC ([8]; M. suipneumoniae ATCC 25095, Friis broth, 0.9% agarose, 6 days 37° C., read-out: M.I.C.): 0.5 mg/L (≈ 1.07 µM); MIC ([14]; 18 h): > 80 mg/L; MIC ([15]; NCTC10418, 18 h): > 80 mg/L; MIC ([16]; Erysipelothrix rhusiopathiae, NCTC8163, 18 h): > 80 mg/L; MIC ([17]; PA5, 18 h): 5 mg/L (≈ 10.7 µM); MIC ([20]; S7, 18 h): > 80 mg/L; MIC ([21]; TYPHIMURIUM, 18 h): > 80 mg/L; MIC [30]: > 100 mg/L |
